Values of other authors in patent US7956090B2, “Composition and method for increasing the anabolic state of muscle cells” (priority 2007, dated 2011).

Tests used:
[1] = about 1.5 g daily after intense exercise for 42 days
[2] = condensation and cyclization upon dissolution in water

Row | Structure (SMILES) | delayed onset muscle soreness [1] | total lean soft tissue mass [1] | stability in aqueous solution [2]
1 | CC(C)CC(O)C(=O)O (stereo not drawn) [HICA, 2-hydroxy-4-methylvaleric acid] | little to no delayed onset muscle soreness | statistically significant increase | 
2 | CC(=O)C(=O)O [pyruvate, pyruvic acid] |  |  | poor stability
